Measured values: ChEMBL document CHEMBL4811270, “Nitrile-based peptoids as cysteine protease inhibitors” (Bioorg Med Chem, 2021)

Assays:
Cathepsin B [1] = molecular target: T1, Cathepsin B (Homo sapiens, UniProt P07858); test: Inhibition of recombinant human liver CatB at 10 uM using Z-FR-AMC as substrate by fluorescence assay relative to control
[2] = molecular target: T2, Cathepsin K (Homo sapiens) (UniProt P43235); test: Inhibition of recombinant human liver CatK at 10 uM using Z-FR-AMC as substrate by fluorescence assay relative to control
T2 sequence (whole entry): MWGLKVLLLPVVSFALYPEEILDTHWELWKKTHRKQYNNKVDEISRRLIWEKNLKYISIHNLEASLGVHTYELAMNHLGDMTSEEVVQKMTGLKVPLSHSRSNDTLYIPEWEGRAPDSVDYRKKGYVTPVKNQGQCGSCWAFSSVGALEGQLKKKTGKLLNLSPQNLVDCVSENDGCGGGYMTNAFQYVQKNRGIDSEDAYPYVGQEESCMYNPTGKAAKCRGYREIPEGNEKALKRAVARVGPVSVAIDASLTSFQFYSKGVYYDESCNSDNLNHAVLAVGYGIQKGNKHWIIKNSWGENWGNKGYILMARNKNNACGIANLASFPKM

Cathepsin S [3] = molecular target: T3, Cathepsin S (Homo sapiens, UniProt P25774); test: Inhibition of recombinant human liver CatS using Z-FR-AMC as substrate by fluorescence assay
Target sequence in this assay (P25774 whole entry): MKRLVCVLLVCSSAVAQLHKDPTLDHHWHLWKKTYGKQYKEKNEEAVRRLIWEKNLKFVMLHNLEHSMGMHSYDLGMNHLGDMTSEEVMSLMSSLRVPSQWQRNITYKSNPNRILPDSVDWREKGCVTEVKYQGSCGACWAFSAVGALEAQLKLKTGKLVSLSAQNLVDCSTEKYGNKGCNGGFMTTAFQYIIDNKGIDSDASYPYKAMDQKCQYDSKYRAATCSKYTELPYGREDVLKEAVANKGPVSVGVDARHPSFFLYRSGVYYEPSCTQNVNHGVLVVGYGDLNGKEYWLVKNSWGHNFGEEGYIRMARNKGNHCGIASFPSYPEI

Procathepsin L [4] = molecular target: T4, Procathepsin L (Homo sapiens, UniProt P07711); test: Inhibition of recombinant human liver CatL using Z-FR-AMC as substrate by fluorescence assay
Target sequence in this assay (P07711 whole entry): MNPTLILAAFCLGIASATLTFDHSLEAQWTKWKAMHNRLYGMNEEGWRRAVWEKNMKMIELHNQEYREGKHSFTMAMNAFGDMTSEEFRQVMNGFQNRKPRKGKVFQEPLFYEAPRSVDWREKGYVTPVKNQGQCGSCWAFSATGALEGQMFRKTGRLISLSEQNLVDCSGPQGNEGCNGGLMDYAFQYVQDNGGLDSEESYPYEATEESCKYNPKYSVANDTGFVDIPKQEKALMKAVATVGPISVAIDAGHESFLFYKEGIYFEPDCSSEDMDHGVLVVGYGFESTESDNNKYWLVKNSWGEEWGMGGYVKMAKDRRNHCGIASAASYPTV

[5] = molecular target: Cruzipain (Trypanosoma cruzi) (UniProt P25779); test: Inhibition of Trypanosoma cruzi cruzain at 10 uM using Z-FR-AMC as substrate by fluorescence assay relative to control
Chain of Cruzipain (Trypanosoma cruzi) (P25779 123-467 limits assumed): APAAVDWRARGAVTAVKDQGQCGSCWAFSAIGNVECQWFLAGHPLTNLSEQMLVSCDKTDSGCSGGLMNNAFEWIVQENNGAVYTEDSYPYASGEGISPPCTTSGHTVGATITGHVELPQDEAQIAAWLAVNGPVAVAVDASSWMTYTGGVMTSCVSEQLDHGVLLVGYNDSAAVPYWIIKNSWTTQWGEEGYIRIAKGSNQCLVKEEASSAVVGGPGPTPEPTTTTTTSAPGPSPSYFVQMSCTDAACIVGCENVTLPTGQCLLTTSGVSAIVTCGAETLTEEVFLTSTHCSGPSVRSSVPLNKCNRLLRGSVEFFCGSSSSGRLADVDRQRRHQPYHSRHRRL

Cathepsin B [6] = molecular target: T1, Cathepsin B; test: Inhibition of recombinant human liver CatB using Z-FR-AMC as substrate by fluorescence assay
Procathepsin L [7] = molecular target: T4, Procathepsin L; test: Inhibition of recombinant human liver CatL at 10 uM using Z-FR-AMC as substrate by fluorescence assay relative to control
Target sequence in this assay (P07711 114-333 limits assumed): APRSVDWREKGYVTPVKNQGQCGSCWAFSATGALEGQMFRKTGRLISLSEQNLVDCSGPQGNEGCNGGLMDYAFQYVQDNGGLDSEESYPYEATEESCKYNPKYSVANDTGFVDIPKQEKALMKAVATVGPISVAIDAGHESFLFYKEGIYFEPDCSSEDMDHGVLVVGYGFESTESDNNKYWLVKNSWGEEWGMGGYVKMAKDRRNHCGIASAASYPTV

Cathepsin S [8] = molecular target: T3, Cathepsin S; test: Inhibition of recombinant human liver CatS at 10 uM using Z-FR-AMC as substrate by fluorescence assay relative to control
Target sequence in this assay (P25774 115-331 limits assumed): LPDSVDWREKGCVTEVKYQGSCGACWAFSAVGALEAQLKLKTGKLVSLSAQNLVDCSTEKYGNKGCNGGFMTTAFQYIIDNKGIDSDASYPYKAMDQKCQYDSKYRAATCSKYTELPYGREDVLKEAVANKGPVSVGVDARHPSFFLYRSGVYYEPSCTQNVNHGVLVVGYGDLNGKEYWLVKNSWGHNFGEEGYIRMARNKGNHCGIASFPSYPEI

Cruzipain = Cruzipain (Trypanosoma cruzi, UniProt P25779); test: Inhibition of Trypanosoma cruzi cruzain using Z-FR-AMC as substrate by fluorescence assay
Chain of Cruzipain (P25779 whole entry): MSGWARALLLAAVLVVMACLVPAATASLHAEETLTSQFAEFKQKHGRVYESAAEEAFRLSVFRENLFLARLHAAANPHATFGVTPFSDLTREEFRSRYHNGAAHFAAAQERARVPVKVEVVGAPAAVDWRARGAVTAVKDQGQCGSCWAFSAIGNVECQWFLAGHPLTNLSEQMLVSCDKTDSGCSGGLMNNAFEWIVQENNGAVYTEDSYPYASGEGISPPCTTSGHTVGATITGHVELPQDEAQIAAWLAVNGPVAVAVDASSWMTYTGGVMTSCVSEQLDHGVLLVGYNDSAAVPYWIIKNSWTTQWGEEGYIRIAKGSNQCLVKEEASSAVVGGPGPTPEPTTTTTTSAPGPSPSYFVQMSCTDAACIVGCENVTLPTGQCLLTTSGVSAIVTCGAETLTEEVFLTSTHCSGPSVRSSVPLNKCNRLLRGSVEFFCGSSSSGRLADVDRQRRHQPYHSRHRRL

Cathepsin K = molecular target: T5, Cathepsin K (Homo sapiens, UniProt P43235); test: Inhibition of recombinant human liver CatK using Z-FR-AMC as substrate by fluorescence assay
T5 sequence (P43235 whole entry): T2 sequence (whole entry)

| Compound | inhibition (Cathepsin B [1]) [%] | inhibition [2] [%] | Ki (Cathepsin S [3]) [µM] | Ki (Procathepsin L [4]) [µM] | inhibition [5] [%] | Ki (Cathepsin B [6]) [µM] | inhibition (Procathepsin L [7]) [%] | inhibition (Cathepsin S [8]) [%] | Ki (Cruzipain) [µM] | Ki (Cathepsin K) [µM] |
| --- | --- | --- | --- | --- | --- | --- | --- | --- | --- | --- |
| N#CCNC(=O)CN(Cc1ccccc1)S(=O)(=O)c1cccc(Cl)c1 | > 95 | 68 | 2 | 2.51 | 87 |  |  |  |  |  |
| Cn1nc(C(C)(C)C)cc1C(=O)N(CC(=O)NC1(C#N)CC1)Cc1ccccc1 |  | 54 |  |  |  | 3.98 | 85 | > 95 | 6.31 |  |
| Cn1nc(C(C)(C)C)cc1C(=O)N(CC(=O)NCC#N)Cc1ccccc1 | 93 | 58 |  |  | > 95 |  | 88 | 84 |  |  |
| N#CC1(NC(=O)CN(Cc2ccccc2)C(=O)c2ccccc2)CC1 | 91 |  | 5.01 |  |  |  | 82 |  | 7.94 | 0.398 |
| COc1ccc(-c2ccc(C(=O)N(CC(=O)NCC#N)Cc3ccccc3)cc2)cc1 | 83 |  | 0.794 |  |  |  | > 95 |  | 5.01 | 2.51 |
| COc1ccc(-c2ccc(C(=O)N(CC(=O)NC3(C#N)CC3)Cc3ccccc3)cc2)cc1 | 78 |  | 3.98 |  |  |  | 68 |  | 10 | 10 |
| N#CC1(NC(=O)[C@H](Cc2ccccc2)NC(=O)c2ccccc2)CC1 |  |  |  |  |  | 7.94 |  |  | 0.2 |  |
| Cn1nc(C(C)(C)C)cc1C(=O)N(CC(=O)NCC#N)Cc1cccc(Cl)c1 |  | > 95 |  |  |  | 7.94 | > 95 | > 95 | 0.158 |  |
| N#CCNC(=O)CN(Cc1ccccc1)C(=O)c1ccccc1 | 85 | > 95 | 5.01 | 0.631 |  |  |  |  | 6.31 |  |
| N#CCNC(=O)CN(Cc1ccccc1)C(=O)c1cccc(I)c1 | 87 | > 95 | 10 | 6.31 | 34 |  |  |  |  |  |
| N#CC1(NC(=O)CN(Cc2ccccc2)C(=O)Cc2ccccc2)CC1 | > 95 | 58 |  |  |  |  | 87 | > 95 | 2.51 |  |
| N#CC1(NC(=O)CN(Cc2ccccc2)C(=O)c2ccc(-c3ccccc3)cc2)CC1 |  | > 95 |  |  |  | 3.16 | > 95 | 89 | 0.251 |  |
| Cn1nc(C(C)(C)C)cc1C(=O)N(CC(=O)N[C@H](C#N)Cc1ccccc1)Cc1ccccc1 | 80 |  |  | 3.16 | 87 |  |  | 84 |  | 0.316 |
| N#CCNC(=O)CN(Cc1ccccc1)C(=O)c1ccc(-c2ccccc2)cc1 | 66 | 86 | 6.31 | 10 |  |  |  |  | 3.16 |  |
| CC(C)(C#N)NC(=O)CN(Cc1ccccc1)C(=O)c1ccccc1 | 90 |  | 7.94 |  |  |  | > 95 |  | 6.31 | 0.251 |
